GI50 and TGI data for ten compounds are collected here from PubChem BioAssay (NCI).

Where “and” joins values, the source holds several entries; their conditions need not be identical. Equal values may be shown once.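 Protocol summary: plate cells (96-well), add compound at 5 concentrations, incubate 48 h, interpolate endpoints linearly. GI50 marks 50% less growth. Definition used: TGI = concentration required for complete inhibition of growth.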

Common to all, as to experiment: DTP human tumour cell line panel, 48 h
Experiment [1] has as its system UO-31 renal.
Experiment [2] concerns SF-295 CNS.
For experiment [3], the system named is SNB-75 CNS.
Experiment [4] relates to SNB-19 CNS.
Experiment [5] has as its system HCC-2998 colon.
Experiment [6] relates to SW-620 colon.
The subject of experiment [7] is SR leukemia.
Experiment [8] has as its system EKVX NSCLC.
Experiment [9] has as its system MDA-MB-435.
In experiment [10] the test system is UACC-62 melanoma.

For orientation: GI50 means the concentration at which growth is held to half of that of the control. For orientation: TGI means the concentration at which net growth stops. High values mean lower sensitivity of the cells, low ones greater sensitivity of the cells. Consider `Oc1ccc(Cl)cc1Sc1cc(Cl)ccc1O`, for which the GI50 in experiment [1] is 2.24 µM; in [2], 2.37 µM; in experiment [3], 2.94 µM; in [4] it was 4.19 µM; in [5], 3.92 µM; in [6] it was 4.02 µM. Further, the GI50 in experiment [7] is 3.53 µM; in [8], 2.58 µM; in [9], 2.79 µM; in experiment [10] it was 3.24 µM. Moreover, the concentration for total growth inhibition (TGI) is 20.1 µM and 6.24 µM in [1]; 30.9 µM and 6.43 µM in experiment [2]; 36.4 µM and 10.6 µM in [3]; 57.1 µM and 16 µM in experiment [4]; 14.8 µM in experiment [5]; 39.6 µM and 13.8 µM in [6]. Further, the TGI in [7] was 51.6 µM and 12.2 µM; in experiment [8], 33 µM and 8.19 µM; in experiment [9] it was 23.9 µM and 9.08 µM; in [10] it was 17.1 µM and 10.7 µM.

Take `NC(Cc1cccnn1)C(=O)O` (stereo unspecified): the TGI in [1], in experiment [2], in experiment [3], in experiment [4], in [5] and in experiment [6] was greater than 100 µM each time. Also, the TGI in [7], in experiment [8], in experiment [9] and in experiment [10] was greater than 100 µM throughout.

Turning to `C=C1C(=O)O[C@@H]2CC(CO)=C([C@@H](C)CCCO)[C@@H](OC(=O)/C(C)=C\C)[C@H]12`, the TGI was greater than 65 µM in experiment [1]; greater than 100 µM in [2]; greater than 100 µM in [3]; greater than 54.6 µM in experiment [4]; 29.6 µM in experiment [5]; 44.5 µM in experiment [6]. Moreover, the TGI in experiment [7] is 8.22 µM; in experiment [8], 48.2 µM; in experiment [9], greater than 52.4 µM; in experiment [10], 47.8 µM.

For the compound `O=C(NCCCl)Nc1ccccc1`, the TGI in [1], in [2], in experiment [3], in experiment [4], in experiment [5] and in experiment [6] was greater than 100 µM each time. Besides, the TGI in [7], in [8], in experiment [9] and in experiment [10] was greater than 100 µM each time.

Regarding `OC(CN1CCCC2CCCCC21)c1cc2ccccc2c2ccccc12` (stereo unspecified), the GI50 was 1.44 µM in [1]; 1.45 µM in experiment [2]; 1.9 µM in [3]; 3.52 µM in experiment [4]; 1.78 µM in experiment [5]; 1.66 µM in experiment [6]. Moreover, the GI50 in experiment [7] was 1.6 µM; in [8] it was 1.56 µM; in [9], 2.02 µM; in [10], 2.32 µM. For the same compound, the TGI in [1] came out at 7.41 µM; in experiment [2] it was 3.21 µM; in experiment [3], 6.83 µM; in experiment [4] it was 15.1 µM; in [5], 3.9 µM; in experiment [6], 3.36 µM. The TGI in experiment [7] amounted to 3.43 µM; in experiment [8] it was 3.54 µM; in [9], 5.06 µM; in experiment [10] it was 6.58 µM.

In the case of `COc1cc(C2c3cc4c(cc3[C@@H](Nc3ccc([N+](=O)[O-])cc3)C3COC(=O)[C@H]23)OCO4)cc(OC)c1O` (stereo partly specified), the GI50 is 0.753 µM in [1]; 0.333 µM in [3]; 0.481 µM in experiment [4]; 0.783 µM in experiment [6]; 0.045 µM in experiment [7]; 0.547 µM in [10]. Also, the TGI in experiment [1] is 8.76 µM; in experiment [2], 4.85 µM; in experiment [3], 0.836 µM and 7.83 µM; in [4], 25.8 µM; in experiment [5], 7.01 µM; in experiment [6] it was greater than 91.7 µM. In addition, the TGI is 0.802 µM and 2.18 µM in experiment [7]; 17.2 µM in experiment [8]; greater than 100 µM in experiment [9]; 8.31 µM in experiment [10].

For `Cc1ccc(N=Nc2c(O)ccc3n[nH]nc23)cc1`, the GI50 in [1] was 11.7 µM; in [2], 11.3 µM; in experiment [3], 17.4 µM; in experiment [4], 20.7 µM; in experiment [5], 26.2 µM; in experiment [6], 12.3 µM. The GI50 in [7] was 14 µM; in experiment [8] it was 11.6 µM; in experiment [9] it was 4.47 µM; in experiment [10], 4.52 µM. For the same compound, the TGI in experiment [1] is 44.9 µM; in experiment [2], 38 µM; in experiment [3] it was greater than 100 µM; in experiment [4], greater than 100 µM; in [5] it was greater than 100 µM; in experiment [6], greater than 100 µM. Further, the TGI in experiment [7] was determined as 64.8 µM; in experiment [8] it was 50 µM; in experiment [9], 37.5 µM; in [10] it was 47.7 µM.

On to `Cc1nn(Cc2ccccc2)cc1C(=O)Nc1sc2c(c1C(N)=O)CCC(=O)C2`, for which the GI50 in [1] was 1.39 µM; in experiment [2] it was 2.68 µM; in [3] it was 1.74 µM; in experiment [4], 3.33 µM; in experiment [5], 2.56 µM; in experiment [6], 0.985 µM. The GI50 in experiment [7] is 1.41 µM; in experiment [8], 3.03 µM; in [9] it was 1.98 µM; in [10] it was 1.59 µM. Moreover, the TGI in experiment [1] is 2.88 µM; in experiment [2] it was 8.07 µM; in experiment [3], 6.81 µM; in experiment [4], greater than 100 µM; in experiment [5], 7.41 µM; in [6], 5.78 µM. The TGI amounted to 8.81 µM in experiment [7], 21.7 µM in [8], 4.45 µM in [9] and 3.4 µM in experiment [10].

`Cc1cc(N(CCC#N)CCC#N)ccc1/C=C(\NC(=O)/C=C/c1ccccc1)C(=O)Nc1ccc(Cl)cc1`: the TGI in experiment [1] was greater than 100 µM; in experiment [2], greater than 100 µM; in experiment [3], greater than 100 µM; in experiment [4] it was greater than 100 µM; in experiment [5], greater than 58.7 µM; in experiment [6], greater than 100 µM. Besides, the TGI in experiment [7] is greater than 100 µM; in [8], greater than 100 µM; in experiment [9], greater than 100 µM; in experiment [10], greater than 14.7 µM.

`COc1c(B(O)O)cccc1-c1nc2ccc3[nH]ncc3c2c2c1CCCC2`: the GI50 in [1] is 0.262 µM; in experiment [2] it was 1.89 µM; in experiment [3], 0.0307 µM; in [4], 2.68 µM; in experiment [5] it was 2.35 µM; in [6], 1.17 µM. The GI50 was 1.13 µM in experiment [7], 2.65 µM in experiment [8], 3.45 µM in [9] and 2.71 µM in experiment [10]. Also, the TGI in experiment [1] came out at 14.3 µM; in experiment [2] it was 12.6 µM; in experiment [3], 0.382 µM; in [4], 28.1 µM; in experiment [5], 6.12 µM; in experiment [6], 12.1 µM. For the same compound, the TGI is 13.9 µM in experiment [7], 15.9 µM in experiment [8], 12.1 µM in experiment [9] and 10.2 µM in experiment [10].
